Results as given in patent US9011882B2, “Dimethylarginine dimethylaminohydrolase inhibitors and methods of use thereof” (The Board of Trustees of the Leland Stanford Junior …, priority 2012, dated 2015).
“Also recorded” adds a separate entry of the source.

Assays:
human DDAH1 [1] = biological target: T1, human DDAH1 (Homo sapiens (Human), UniProt O94760); assay: Fluorimetric CPM assay of DDAH activity (SMTC substrate); type: biochemical; conditions: for IC50: CPM assay, 100 μM SMTC, Assay Explorer software, read-out: IC50; for inhibition of DDAH activity, CPM fluorometric validation: fresh powders from vendors, vs vehicle
Protocol: The activity of human DDAH1 was quantified using fluorimetric assay by incubating the enzyme with an artificial substrate S-methyl-thiocitrulline (SMTC). DDAH metabolizes SMTC into L-citrulline and methanethiol (CH3—SH). The thiol released from the reaction can be monitored fluorimetrically by adding 7-Diethylamino-3-(4-maleimidophenyl)-4-methylcoumarin (CPM).
The activity of human DDAH1 was quantified using fluorimetric assay by incubating the enzyme with an artificial substrate S-methyl-thiocitrulline (SMTC), as described in Example 1. DDAH metabolizes SMTC into L-citrulline and methanethiol (CH3—SH). The thiol released from the reaction can be monitored fluorimetrically by adding 7-Diethylamino-3-(4-maleimidophenyl)-4-methylcoumarin (CPM).
For the secondary assay, a fluorimetric assay that uses SMTC as a substrate was adapted. DDAH metabolizes SMTC into L-citrulline and methanethiol (CH3—SH). In brief, DDAH (30 nM final concentration) was mixed with SMTC (100 μM final concentration), CPM (50 μM final concentration) and screening buffer (containing a final concentration of 0.01% Triton-X100 and 1 mM EDTA). The reaction mix was added to black 384-well plates to validate primary hits that modulate DDAH activity. The release of CH3—SH was monitored fluorimetrically by adding 7-Diethylamino-3-(4-maleimidophenyl)-4-methylcoumarin (CPM) as described in Linsky (Linsky, T. & Fast, W. A continuous, fluorescent, high-throughput assay for human dimethylarginine dimethylaminohydrolase-1. J Biomol Screen 16, 1089-1097 (2011)).

human DDAH1 [2] = biological target: T1, human DDAH1; assay: Inhibitors of human DDAH-1 validated in full dose-response curves (Table 1); type: biochemical; conditions: for IC50: Assay Explorer software
Protocol: (§1) Over 130,000 small molecules deposited in the Stanford High-throughput Bioscience Center (HTBC) were screened using the enzymatic assay to identify chemicals that regulate DDAH activity. In brief, recombinant human DDAH1 (rhDDAH1) was mixed with ADMA in the presence of screening buffer in 384-well plates using a Staccato multidrop. Small molecules (100 nL each) were then added to the wells using a robotic arrayer to yield a final compound screening concentration of up to 50 μM. Plates were incubated at 37° C. for 4 hours. Subsequently, color developing reagent (containing 2 volumes of Antipyrine and 1 volume of 2,3-Butanedione oxime reagents) was added using Velocity 11 system and the plates were sealed using an automated plate sealer. Finally, color was developed by incubating the plates at 60° C. for 90 minutes prior to spinning them at 1,500 rpm for 5 minutes. In this assay absorbance is proportional to the concentration of citrulline generated by DDAH, and was measured using an AnalystGT plate reader at 485 nm using a dichroic beamsplitter. The signal-to-noise ratio of separation was calculated using an established formula in Zhang. (Zhang, J. H., Chung, T. D. & Oldenburg, K. R. A Simple Statistical Parameter for Use in Evaluation and Validation of High Throughput Screening Assays. J Biomol Screen 4, 67-73 (1999)).
Inhibitors were defined as compounds that reduce absorbance by at least 30% compared to control wells. The hits were validated using 8-point full dose response study (50 μM to 0.39 μM in serial dilutions). […] To determine which of these hits were true inhibitors of DDAH activity, a modification of a validated secondary fluorometric assay was used, as described below. […]

[3] = tested on: human microvascular endothelial cells (HMEC-1); assay: Intracellular ADMA by ELISA in endothelial cells; type: cell-based; conditions: 20 μM, 24 hours, compared to vehicle control
Protocol: (§2) First, human microvascular endothelial cells (HMEC-1; ATCC) were seeded in 75 cm^2 cell culture flasks and cultured in fully supplemented DMEM (Invitrogen cat #11995; supplemented with 10% fetal bovine serum (FBS), 4 mM HEPES; GIBCO 15630 and penicillin/streptomycin). The cells were incubated at 37° C./5% CO2 until ˜60% confluency. The cells were then washed with phosphate buffered saline (PBS) and plain DMEM (DMEM with no addition of serum or the other supplements) was mixed with esomeprazole (20 μM final concentration from 100 mM stock) and added to the cells. […] After ˜4 hrs of incubation, the media was aspirated from each flask and the cells were cultured in fully supplemented DMEM as described above and incubated at 37° C./5% CO2 for another 20 hrs. The serum was initially withdrawn due to the possibility that esomeprazole would interact with Cys containing serum proteins and fail to internalize at effective concentrations.
After 24 hrs, the cells were harvested. Total cellular protein was estimated as described and ADMA was measured by enzyme-linked immunosorbent assay (ELISA) following the manufacturer's recommendations; DLD Diagnostika, Hamburg, Germany).
as §2, with “FBS,” for “fetal bovine serum (FBS),”, “PBS” for “phosphate buffered saline (PBS)”, “PD 404” for “esomeprazole”, “conc” for “concentration”, “The serum was initially withdrawn due to the possibility that esomeprazole would interact with Cys containing serum proteins and fail to internalize at effective concentrations.” left out
After 24 hours, the cells were harvested. Total cellular protein was estimated as described and ADMA was measured by ELISA following the manufacturer's recommendations; DLD Diagnostika, Hamburg, Germany).

[4] = biological target: recombinant human DDAH1 (rhDDAH1) (Homo sapiens (Human), UniProt O94760); assay: Colorimetric L-citrulline assay of DDAH activity (ADMA substrate; high throughput screen and orthogonal validation); type: biochemical; conditions: for IC50: high throughput screen of library copies (BMF-6, BMF-7, BMF-8, MicroSource, LOPAC), dose-dependent inhibition
Protocol: (§3) The enzymatic activity of DDAH was monitored using a colorimetric assay that detects product (L-citrulline) formation from the substrate ADMA. In brief, recombinant human DDAH1 (rhDDAH1) was mixed with ADMA in the presence of screening buffer in 384-well plates. Plates were incubated at 37° C. for 4 hours. Subsequently, color developing reagent (containing 2 volumes of Antipyrine and 1 volume of 2,3-Butanedione oxime reagents) was added and the plates were incubated at 60° C. for 90 min prior to spinning them at 1,500 rpm for 5 min. In this assay absorbance is proportional to the concentration of citrulline generated by DDAH, and was measured using an AnalystGT plate reader at 485 nm using a dichroic beamsplitter.
as §3, with “ADMA, as described in Example 1.” for “ADMA.”, “antipyrine” for “Antipyrine”
The L-citrulline assay was based upon an original test-tube method developed by Prescott and Jones in 1969 (Prescott, L. M. & Jones, M. E. Modified methods for the determination of carbamyl aspartate. Anal Biochem 32, 408-419 (1969)), which was adapted and optimized for a microplate format. Subsequently, the activity of DDAH was quantified by detecting its conversion of ADMA to citrulline using the optimized protocol. The assay was scaled up to a 384-well format for high throughput chemical screening.
as §1
In brief, various amounts of rhDDAH1 (0.1 to 10 μM) were incubated with various concentrations of ADMA (1 μM to 8 mM) for various time points (30 min to 10 h) at room temperature or 37° C. […] The reactions were stopped and color was developed as described above followed by incubation at 60° C. for 90 min. Absorbance, proportional to DDAH activity, was measured at 485 nm±20 nm. In order to screen the entire library, the biochemical properties of the assay were optimized, as described above. The technique was modified so as to reduce the number of steps and facilitate robotic handling and throughput. Subsequently, HTS was performed using 384-well plates. […]

[5] = 50 μM, compared to vehicle control

recombinant human DDAH1 (rhDDAH1), sequence (O94760 whole entry): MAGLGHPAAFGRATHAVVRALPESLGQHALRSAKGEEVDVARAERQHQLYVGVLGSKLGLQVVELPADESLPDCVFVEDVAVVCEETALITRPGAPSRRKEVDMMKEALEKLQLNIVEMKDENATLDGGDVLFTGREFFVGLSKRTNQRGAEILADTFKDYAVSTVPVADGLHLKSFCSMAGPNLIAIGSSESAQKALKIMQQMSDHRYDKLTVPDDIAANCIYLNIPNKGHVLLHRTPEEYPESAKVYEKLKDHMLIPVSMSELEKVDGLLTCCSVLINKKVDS
T1 sequence (O94760 whole entry): as above

Structure (SMILES): CN=c1nc(-c2ccccc2)n(-c2ccccc2)s1 [SCH-202676]
- IC50 (human DDAH1 [1]): 13.3 µM

Structure (SMILES): Cc1cc(C)c2c(=O)n(CC(=O)NCCCSC3CCCCC3)sc2n1
- Hill Slope (human DDAH1 [2]): 1.6
- IC50 (human DDAH1 [2]): 12.8 µM

Structure (SMILES): CCCCNC(=O)Cn1sc2nc(C)cc(C)c2c1=O
- Hill Slope (human DDAH1 [2]): 1.7
- IC50 (human DDAH1 [2]): 5.1 µM

Structure (SMILES): Cc1cc(C)c2c(=O)n(CC(=O)NC(C)c3ccccc3)sc2n1 (centres unmarked)
- Hill Slope (human DDAH1 [2]): 1.7
- IC50 (human DDAH1 [2]): 13.7 µM

Structure (SMILES): O=c1[nH]sc2ccccc12 [Benzo[d]isothiazol-3(2H)-one]
- Hill Slope (human DDAH1 [2]): 1
- IC50 (human DDAH1 [2]): 13.2 µM

Structure (SMILES): Cc1ccc(NC(=O)/C=C/C(N)=O)cc1
- Hill Slope (human DDAH1 [2]): 1.1
- IC50 (human DDAH1 [2]): 21.2 µM

Structure (SMILES): Cc1cc(C)c2c(=O)n(CC(=O)NC3CCCC(C)C3C)sc2n1 (centres unmarked)
- Hill Slope (human DDAH1 [2]): 1.7
- IC50 (human DDAH1 [2]): 8.6 µM

Structure (SMILES): COCCNC(=O)Cn1sc2nc(C)cc(C)c2c1=O
- Hill Slope (human DDAH1 [2]): 1.4
- IC50 (human DDAH1 [2]): 3.3 µM

Structure (SMILES): COc1cnn(-c2ccccc2)c(=O)c1S [4-MMP, 4-mercapto-5-methoxy-2-phenyl-3(2H)-pyridazinone]
- IC50 (human DDAH1 [1]): 12.7 µM

Structure (SMILES): N=C1Sc2ccccc2C2=NCCCN12 [PD 404]
- increase in intracellular ADMA [3]: ~84%
- inhibition of DDAH activity, orthogonal colorimetric assay [4, 5]: significantly inhibited DDAH activity
- IC50 [4]: 8.71 µM
- inhibition of DDAH activity, CPM fluorometric assay (human DDAH1 [1]; [5]): directly inhibit DDAH activity; also recorded: inhibited DDAH activity significantly

Structure (SMILES): O=C1CC(N2CCCCCC2)C(=O)N1c1cccc2ccccc12 (centres unmarked)
- Hill Slope (human DDAH1 [2]): 1.8
- IC50 (human DDAH1 [2]): 13.1 µM

Structure (SMILES): Cc1cc(C)c2c(=O)n(CC(=O)NCCC3=CCCCC3)sc2n1
- Hill Slope (human DDAH1 [2]): 2
- IC50 (human DDAH1 [2]): 11.8 µM

Structure (SMILES): COc1ccc2[nH]c([S+]([O-])Cc3ncc(C)c(OC)c3C)nc2n1 (centres unmarked) [Tenatoprazole]
- IC50 [4]: 7.8 µM
- inhibition of DDAH activity, CPM fluorometric validation (human DDAH1 [1]): inhibited DDAH activity significantly

Structure (SMILES): N/C=C1\C=C(c2ccccc2)OC1=S
- Hill Slope (human DDAH1 [2]): 1.3
- IC50 (human DDAH1 [2]): 17.7 µM

Structure (SMILES): CCOCCCNC(=O)Cn1sc2nc(C)cc(C)c2c1=O
- Hill Slope (human DDAH1 [2]): 2.3
- IC50 (human DDAH1 [2]): 7.1 µM

Structure (SMILES): Cc1c(OCC(F)(F)F)ccnc1C[S+]([O-])c1nc2ccccc2[nH]1 (centres unmarked) [Lansoprazole]
- IC50 [4]: 51 µM
- inhibition of DDAH activity, CPM fluorometric validation (human DDAH1 [1]): inhibited DDAH activity significantly

Structure (SMILES): Cc1cc(C)c2c(=O)n(CC(=O)NCc3ccccc3Cl)sc2n1
- Hill Slope (human DDAH1 [2]): 0.4
- IC50 (human DDAH1 [2]): 39.9 µM

Structure (SMILES): O=C(O)c1ccc(N2C(=O)C=CC2=O)cc1
- Hill Slope (human DDAH1 [2]): 1.6
- IC50 (human DDAH1 [2]): 23.3 µM

Structure (SMILES): Cc1ccc(-c2ccc(CCC(=O)O)o2)cc1
- Hill Slope (human DDAH1 [2]): 1.1
- IC50 (human DDAH1 [2]): 45.8 µM

Structure (SMILES): Cc1cc(C)c2c(=O)n(CC(=O)NCCc3ccc(Cl)cc3)sc2n1
- Hill Slope (human DDAH1 [2]): 1.2
- IC50 (human DDAH1 [2]): 13.4 µM

Structure (SMILES): COCCCOc1ccnc(C[S+]([O-])c2nc3ccccc3[nH]2)c1C (centres unmarked) [Rabeprazole]
- inhibition of DDAH activity, orthogonal colorimetric assay ([4]; fresh powders, FIG. 3, vs vehicle): significantly inhibited DDAH activity
- inhibition of DDAH activity, CPM fluorometric validation (human DDAH1 [1]): inhibited DDAH activity significantly

Structure (SMILES): CCOc1ccc(CCNC(=O)Cn2sc3nc(C)cc(C)c3c2=O)cc1
- Hill Slope (human DDAH1 [2]): 1.5
- IC50 (human DDAH1 [2]): 10.5 µM

Structure (SMILES): O=c1c2ccccc2[se]n1-c1ccccc1 [ebselen]
- inhibition of DDAH activity, CPM fluorometric validation (human DDAH1 [1]): confirmed known DDAH inhibitors

Structure (SMILES): Cc1cc(C)c2c(=O)n(CC(=O)NC(C)CCc3ccccc3)sc2n1 (centres unmarked)
- Hill Slope (human DDAH1 [2]): 1.6
- IC50 (human DDAH1 [2]): 14.1 µM

Structure (SMILES): COc1ccnc(C[S+]([O-])c2nc3cc(OC(F)F)ccc3[nH]2)c1OC (centres unmarked) [Pantoprazole]
- IC50 [4]: 63 µM
- inhibition of DDAH activity, CPM fluorometric validation (human DDAH1 [1]): inhibited DDAH activity significantly

Structure (SMILES): Cc1cc(C)c2c(=O)n(CC(=O)NCc3ccc4c(c3)OCO4)sc2n1
- Hill Slope (human DDAH1 [2]): 1.5
- IC50 (human DDAH1 [2]): 11 µM

Structure (SMILES): COc1ccc(OC)c(CCNC(=O)Cn2sc3nc(C)cc(C)c3c2=O)c1
- Hill Slope (human DDAH1 [2]): 1.5
- IC50 (human DDAH1 [2]): 9.9 µM
